Read-outs that look alike come from different tables or passages of the source.
Legend:
[1] = molecular target: T1, Plasmodium falciparum calcium-dependent protein kinase 1 (CDPK1) (Plasmodium falciparum, UniProt P62344); assay: CDPK1 Kinase-Glo ATP-consumption screen and dose-response; assay type: biochemical; conditions: hits below 1 uM; read-out: CDPK1 IC50
T1 construct: 6-Histidine (N); made in house
Procedure, shortened: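 Single-point testing used 1 μM final compound, then dose-response, against CDPK4 and CDPK1 with Syntide-2 (40 μM) as substrate. After 90 min, reactions were halted by 5 mM EGTA, and kinase activity was inferred from depleted ATP via Kinase-Glo luminescence.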

[2] = molecular target: T2, Plasmodium falciparum protein kinase 6 (PK6) (Plasmodium falciparum, UniProt Q8IDW1); assay: biochemical; conditions: hits below 1 uM; read-out: PK6 IC50
T2 construct: 6-Histidine (N); made in house
T2 sequence (Q8IDW1 1-305): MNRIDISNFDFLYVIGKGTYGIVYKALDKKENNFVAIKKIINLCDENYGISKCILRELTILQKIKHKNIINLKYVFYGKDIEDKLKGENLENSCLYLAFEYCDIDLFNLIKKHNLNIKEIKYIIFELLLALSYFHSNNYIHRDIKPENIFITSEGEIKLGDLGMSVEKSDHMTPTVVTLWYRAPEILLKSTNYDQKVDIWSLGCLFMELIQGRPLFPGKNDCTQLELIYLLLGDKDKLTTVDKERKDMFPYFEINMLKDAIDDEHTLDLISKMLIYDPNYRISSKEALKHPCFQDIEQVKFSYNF

HepG2 cells = conditions: cited from earlier work
P. falciparum 3D7 cells = conditions: 3D7, cited from earlier work
DD2 [3] = test system: DD2; design: method as in downloaded from ChEMBL; conditions: ref downloaded from ChEMBL; cited from earlier work
3D7 PFLDH [4] = test system: 3D7 PFLDH; design: method as in downloaded from ChEMBL; conditions: ref downloaded from ChEMBL; cited from earlier work
[5] = molecular target: T3, Plasmodium falciparum calcium-dependent protein kinase 4 (CDPK4) (Plasmodium falciparum, UniProt Q8IBS5); assay: CDPK4 Kinase-Glo ATP-consumption screen and dose-response; assay type: biochemical; conditions: hits below 1 uM
T3 construct: 6-Histidine (N); made in house
T3 sequence (Q8IBS5 1-528): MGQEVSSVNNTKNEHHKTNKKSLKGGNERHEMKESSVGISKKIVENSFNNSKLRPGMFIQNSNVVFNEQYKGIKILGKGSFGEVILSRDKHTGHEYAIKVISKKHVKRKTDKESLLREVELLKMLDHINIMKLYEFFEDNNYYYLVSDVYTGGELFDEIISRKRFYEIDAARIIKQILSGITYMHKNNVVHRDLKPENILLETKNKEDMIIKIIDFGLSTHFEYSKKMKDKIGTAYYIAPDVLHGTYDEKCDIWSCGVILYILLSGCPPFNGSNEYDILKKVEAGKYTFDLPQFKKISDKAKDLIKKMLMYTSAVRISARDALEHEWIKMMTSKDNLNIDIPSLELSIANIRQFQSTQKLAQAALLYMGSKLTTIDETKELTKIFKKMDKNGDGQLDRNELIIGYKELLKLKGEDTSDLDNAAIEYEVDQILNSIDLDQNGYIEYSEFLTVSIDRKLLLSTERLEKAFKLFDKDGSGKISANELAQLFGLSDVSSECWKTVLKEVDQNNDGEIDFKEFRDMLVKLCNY
Method: Biochemical assays were performed in white 384-well plates (Nunc). Liquid transfers were done manually with 8-channel pipets. Compounds were initially tested in a single-point screen (final concentration 1 μM). […] The catalytic activity of each kinase was considered proportional to ATP consumed, as determined from measurements of residual [ATP] with the luciferase-based reagent Kinase-Glo (Promega) following incubation. Luminescence (proportional to residual [ATP]) was measured on the plate readers FLx800 (BioTek Instruments, Winooski, VT, USA) and MicroBeta^2 (PerkinElmer, Waltham, MA, USA). Incubation times were chosen to ensure near-complete ATP depletion in the absence of inhibition, thus maximizing the difference in signal between inhibited and uninhibited wells.
40 μM Syntide-2 was used as a substrate; BKI-1 [14] was used as a control inhibitor, while reaction mixtures lacking Syntide-2 were included as an additional negative control. Incubation time was 90 minutes. Reactions were terminated by adding excess EGTA (5 mM), which sequesters Ca^2+ and halts calcium-dependent kinase activity.

PKG = PKG (Plasmodium falciparum, UniProt Q8I719); assay: PKG IC50 (supplementary data file); assay type: biochemical
From the text: Supplement pone.0149996.s003.xls, sheet "combined_1_sorted"

DD2 [6] = test system: DD2; design: method as in F.J. Gamo et al., Nature 2010; conditions: downloaded from ChEMBL, ref F.J. Gamo et al., Nature 2010; cited from earlier work
3D7 PFLDH [7] = test system: 3D7 PFLDH; design: method as in F.J. Gamo et al., Nature 2010; concentration or dose not given beside the values; conditions: downloaded from ChEMBL, ref F.J. Gamo et al., Nature 2010; cited from earlier work
[8] = HEPG2, ref downloaded from ChEMBL
[9] = HepG2, downloaded from ChEMBL, ref F.J. Gamo et al., Nature 2010
[10] = downloaded from ChEMBL, ref F.J. Gamo et al., Nature 2010

T1 sequence (P62344 whole entry): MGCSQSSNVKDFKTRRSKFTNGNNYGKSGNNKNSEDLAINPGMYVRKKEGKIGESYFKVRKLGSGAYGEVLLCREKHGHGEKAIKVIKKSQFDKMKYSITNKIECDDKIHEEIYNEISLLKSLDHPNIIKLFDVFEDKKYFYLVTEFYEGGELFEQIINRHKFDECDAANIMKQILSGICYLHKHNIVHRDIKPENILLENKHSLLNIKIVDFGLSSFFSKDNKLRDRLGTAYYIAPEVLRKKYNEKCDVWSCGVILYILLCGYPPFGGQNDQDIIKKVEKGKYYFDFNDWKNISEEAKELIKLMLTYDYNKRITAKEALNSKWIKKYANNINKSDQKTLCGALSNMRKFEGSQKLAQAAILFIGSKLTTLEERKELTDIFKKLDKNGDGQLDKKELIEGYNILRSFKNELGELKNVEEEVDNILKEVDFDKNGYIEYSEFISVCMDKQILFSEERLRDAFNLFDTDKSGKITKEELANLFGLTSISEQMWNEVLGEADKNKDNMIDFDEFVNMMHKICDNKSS
PKG, sequence (Q8I719 whole entry): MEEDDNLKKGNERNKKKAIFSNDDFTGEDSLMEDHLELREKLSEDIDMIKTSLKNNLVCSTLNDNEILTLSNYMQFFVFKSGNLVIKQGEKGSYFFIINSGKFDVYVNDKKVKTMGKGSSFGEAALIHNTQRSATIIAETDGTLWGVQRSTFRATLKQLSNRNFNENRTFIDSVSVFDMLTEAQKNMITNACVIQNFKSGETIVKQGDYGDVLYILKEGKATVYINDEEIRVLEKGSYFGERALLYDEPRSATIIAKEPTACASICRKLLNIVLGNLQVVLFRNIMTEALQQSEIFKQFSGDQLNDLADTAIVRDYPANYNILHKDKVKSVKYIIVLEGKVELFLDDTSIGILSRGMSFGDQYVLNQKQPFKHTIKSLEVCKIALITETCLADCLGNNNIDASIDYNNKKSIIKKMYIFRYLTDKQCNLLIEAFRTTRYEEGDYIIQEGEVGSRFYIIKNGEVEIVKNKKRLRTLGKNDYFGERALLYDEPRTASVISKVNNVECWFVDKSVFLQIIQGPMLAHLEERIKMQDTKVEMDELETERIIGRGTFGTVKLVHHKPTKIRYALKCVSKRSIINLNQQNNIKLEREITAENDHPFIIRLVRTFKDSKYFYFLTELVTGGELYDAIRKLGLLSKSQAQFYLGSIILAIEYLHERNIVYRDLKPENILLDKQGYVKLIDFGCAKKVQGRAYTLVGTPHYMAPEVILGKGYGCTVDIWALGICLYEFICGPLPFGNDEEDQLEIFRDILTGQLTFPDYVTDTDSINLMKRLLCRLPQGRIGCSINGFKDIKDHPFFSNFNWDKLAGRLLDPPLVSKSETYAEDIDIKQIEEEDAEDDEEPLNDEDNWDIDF

IC50 [2] [µM]	Compound	IC50 [1] [µM]	PCT_INHIB_HEPG2 (HepG2 cells; [8])	PCT_IHB_3D7 (P. falciparum 3D7 cells; ref downloaded from ChEMBL)	pXC50_3D7 (P. falciparum 3D7 cells; ref downloaded from ChEMBL)	PCT_INHB_DD2 (DD2 [3])	PCT_INHIB_3D7_PFLDH (3D7 PFLDH [4])	IC50 [5] [µM]	IC50 (PKG) [µM]	PCT_INHIB_HEPG2 (HepG2 cells; [9]) [%]	PCT_IHB_3D7 (P. falciparum 3D7 cells; [10]) [%]	pXC50_3D7 (P. falciparum 3D7 cells; [10])	PCT_INHB_DD2 (DD2 [6]) [%]	PCT_INHIB_3D7_PFLDH (3D7 PFLDH [7]) [%]
0.14	NS(=O)(=O)c1ccc(Nc2nccc(-c3c(-c4cccc(NC(=O)c5c(F)cccc5F)c4)nn4ccccc34)n2)cc1 [TCMDC-135528]	0.048	83	93	6.118	89	0	–	–	–	–	–	–	–
–	CCn1c(-c2nonc2N)nc2c(-c3ccccc3)ncc(OCCCNCCCN3CCOCC3)c21.O=C(O)C(F)(F)F [TCMDC-135858]	0.042	–	–	–	–	–	0.038	0.126	28	100	6.174	91	0
–	CCn1c(-c2nonc2N)nc2c(-c3cccc(Cl)c3)ncc(OCCCNCCc3c[nH]cn3)c21.O=C(O)C(F)(F)F [TCMDC-135919]	0.138	–	–	–	–	–	0.046	2.21	16	100	6.007	98	0
–	CCn1c(-c2nonc2N)nc2c(-c3cccc(Cl)c3)ncc(OCCCNCc3cnc(C)nc3N)c21.O=C(O)C(F)(F)F [TCMDC-135956]	0.271	–	–	–	–	–	0.145	9.21	21	93	5.996	48	3
–	CCn1c(-c2nonc2N)nc2c(-c3ccccc3)ncc(OCCCCNCCc3ncc[nH]3)c21.O=C(O)C(F)(F)F [TCMDC-136000]	0.094	–	–	–	–	–	0.043	0.953	34	92	6.07	42	0
–	O=C(NC1CC1)c1ccc(Nc2nccc(-c3c(-c4cccc(NC(=O)c5c(F)cccc5F)c4)nn4ccccc34)n2)cc1 [TCMDC-136002]	0.026	84	94	6.386	96	0	–	> 10	–	–	–	–	–
–	CCn1c(-c2nonc2N)nc2c(-c3cccc(NC(=O)Nc4ccc(C(F)(F)F)cc4)c3)ncc(OCCCN)c21.O=C(O)C(F)(F)F [TCMDC-136179]	0.959	–	–	–	–	–	0.03	0.264	36	94	5.981	63	6
–	CCn1c(-c2nonc2N)nc2c(-c3cccc(NC(=O)Nc4ccc5c(c4)CCC5)c3)ncc(OCCCN)c21.O=C(O)C(F)(F)F [TCMDC-136191]	0.085	–	–	–	–	–	0.059	5.05	26	99	6.106	94	0
–	CCn1c(-c2nonc2N)nc2c(-c3cccc(NC(=O)Nc4cccc(Cl)c4)c3)ncc(OCCCN)c21.O=C(O)C(F)(F)F [TCMDC-136193]	0.379	–	–	–	–	–	0.081	0.926	9	91	6.027	78	0
–	Cl.NCCCOc1cnc(-c2ccccc2)c2nc(-c3nonc3N)n(CCc3ccccc3)c12 [TCMDC-136216]	0.047	–	–	–	–	–	–	> 10	56	93	5.895	86	0
